Literature values as cited in patent US6749867B2, “Delivery system for omeprazole and its salts” (priority 2000, dated 2004).
Like-named read-outs stand apart in the source and are kept apart here.

Columns and labels:
[1] = in vivo
[2] = not given; remark: listed apart in the source

plasma half-life [1]: about 60 minutes
half-life of degradation (acidic aqueous solutions, pH values below 4): less than 10 minutes
half-life of degradation (pH 6.5): about 18 hours
half-life of degradation (pH 11): several hundred
solubility in alkaline solution ([2]; alkaline solution, as the negatively charged ion): very soluble
solubility in water ([2]; water): very slightly soluble
Structure (SMILES): COc1ccc2[nH]c([S+]([O-])Cc3ncc(C)c(OC)c3C)nc2c1 (stereo not drawn) [omeprazole, Omeprazole]
